This is an account of results in publication PMC4709569, “A Novel Naturally Occurring Class I 5-Enolpyruvylshikimate-3-Phosphate Synthase from Janibacter sp. Confers High Glyphosate Tolerance to Rice” (Scientific Reports, 2016).

The test system of data set [1] is O=C(O)C1=C[C@@H](OP(=O)(O)O)[C@@H](O)[C@H](O)C1. The experiment in a line: purified protein. The following applies: S3P 0.05-1 mM, PEP fixed 1.0 mM, 50 mM Hepes pH 7.0, 28 °C.
For the next data set, the system named is C=C(OP(=O)(O)O)C(=O)O. The experiment in a line: purified protein. To be noted: PEP 0.05-1 mM, S3P fixed 1.0 mM, 50 mM Hepes pH 7.0, 28 °C.
Data set [2] concerns the target T1, aroAJ. sp (Janibacter sp. YB324, UniProt Z9JWC7BZZ5).
T1 construct: pGEX-6p-1 BamHI/EcoRI, E. coli BL21(DE3); GST tag removed by 3C protease; HTCC2649
In words: malachite green phosphate release, Lineweaver-Burk. The following applies: competitive with respect to PEP; PEP 0.067-0.5 mM, S3P 1 mM; glyphosate 0-5 mM; 50 mM Hepes pH 7.0, 28 °C, KCl present. Format: biochemical. The source says:
malachite green phosphate release, Lineweaver-Burk on aroAJ. sp

In data set [3] the target is T2, aroAE. coli (Escherichia coli, UniProt P0A6D3).
T2 construct: gene aroA; full length; pGEX-6p-1 BamHI/EcoRI, E. coli BL21(DE3); GST tag removed by 3C protease; similar size to aroAJ. sp (47 kDa on gel)
The experiment in a line: malachite green phosphate release, Lineweaver-Burk. Type of data set: biochemical. To be noted: read-out: Ki ^c. An excerpt: malachite green phosphate release, Lineweaver-Burk on aroAE. coli

Data set [4] concerns the target T2, aroAE. coli. The experiment in a line: malachite green phosphate release, dose-response fit. Format: biochemical. An excerpt:
malachite green phosphate release, dose-response fit on aroAE. coli

For data set [5], the target named is T1, aroAJ. sp. The data set is described as above. Format: biochemical. The following applies: 1 mM PEP, 1 mM S3P; glyphosate 0.0001-100 mM; 50 mM Hepes pH 7.0, 28 °C, KCl present. The source says:
malachite green phosphate release, dose-response fit on aroAJ. sp

T2 sequence (P0A6D3 whole entry): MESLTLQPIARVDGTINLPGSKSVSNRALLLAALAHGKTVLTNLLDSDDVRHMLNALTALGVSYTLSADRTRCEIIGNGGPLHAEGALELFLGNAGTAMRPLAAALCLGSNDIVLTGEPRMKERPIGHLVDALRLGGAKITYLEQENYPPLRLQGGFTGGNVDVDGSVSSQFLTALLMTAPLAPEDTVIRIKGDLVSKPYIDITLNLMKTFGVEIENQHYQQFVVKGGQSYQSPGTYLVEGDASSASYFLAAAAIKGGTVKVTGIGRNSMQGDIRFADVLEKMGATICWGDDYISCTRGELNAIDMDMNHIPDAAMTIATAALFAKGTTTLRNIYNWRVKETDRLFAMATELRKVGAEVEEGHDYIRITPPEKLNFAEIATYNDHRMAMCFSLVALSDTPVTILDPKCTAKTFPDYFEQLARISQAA

As for aroAE. coli (Escherichia coli K-12), the values for the Km (in data set [1]; in the data set on C=C(OP(=O)(O)O)C(=O)O) were 115 ± 10 µM and 60 ± 7 µM, respectively.

Take `O=C(O)CNCP(=O)(O)O` [glyphosate]: the Ki (in general, the equilibrium dissociation constant of an inhibitor or competing ligand from its target) on aroAJ. sp [2] came to 373 ± 50 µM; on aroAE. coli [3], 900 ± 90 nM. Also, the values for the IC50 on aroAE. coli [4] and on aroAJ. sp [5] were 40 ± 10 µM and 3.6 ± 0.2 mM, respectively.
